Measured values as given in US6734310B2, “Fluorescent marker” (FEW Chemicals GmbH, priority 2000, dated 2004).

Key:
[1] = VIS spectra of dye after coupling to a protein (aggregation in the protein conjugate); settings: FIG. 1
[2] = protein conjugate vs free dye; cited from earlier work

Structure (SMILES) | VIS spectrum curve shape (monomer / dimer band) [1] | decrease of fluorescence quantum yield of the protein conjugate compared with free, unconjugated dye [2]
CC(C=CC1=[N+](CCCCCC(=O)O)c2ccc(S(=O)(=O)[O-])cc2C1(C)C)=CC=C1N(CCCCCC(=O)O)c2ccc(S(=O)(=O)[O-])cc2C1(C)C.[Na+] [Example 1, 1-(5-carboxypentyl)-2-[5-(l-(5-carboxypentyl)-1,3-dihydro-3,3-dimethyl-5-sulpho-2H-indole-2-ylidene)-3-methylpenta-1,3-dienyl]-3,3-dimethyl-5-sulpho-3H-indolium-inner Salt, Sodium Salt] | typical curve shape for a monomer | –
CC(C=CC1=[N+](CCCCCC(=O)O)c2ccc(S(=O)(=O)[O-])cc2C1(C)C)=C1N(CCCCCC(=O)O)c2ccc(S(=O)(=O)[O-])cc2C1(C)C.[Na+] [Example 3, 1-(5-carboxypentyl)-2-[3-(1,3-dihydro-1-(5-carboxypentyl)-3,3-dimethyl-5-sulpho-2H-indole-2-ylidene)-3-methylprop-1-enyl]-3,3-dimethyl-5-sulpho-3H-indolium Hydroxide, Inner Salt, Sodium Salt] | – | around ¼
